Laboratory results reported in the NIST ThermoML archive (doi:10.1021/je201334p).

Experiments:
[1] = xn = mol fraction of the nth substance listed; conditions: 101 kPa, Liquid; for speed of sound: Sing-around technique in a fixed-path interferometer; for mass density: Vibrating tube method
[2] = refractive index (Na D-line) (dimensionless); xn = mol fraction of the nth substance listed; conditions: 101 kPa, Liquid, Standard Abbe refractometry

CCCC[N+]1(C)CCCC1.N#CN=C=[N-] [1-butyl-1-methylpyrrolidinium dicyanamide] + O
Conditions	mass density, 288.15 K [kg/m3]	mass density, 298.15 K [kg/m3]	mass density, 308.15 K [kg/m3]	refractive index, 288.15 K	refractive index, 298.15 K	refractive index, 308.15 K	speed of sound, 288.15 K [m/s]	speed of sound, 298.15 K [m/s]	speed of sound, 308.15 K [m/s]
[1], x2 = 0	1019.17	1013.53	1007.93	–	–	–	1836.9	1811.1	1781.9
[1], x2 = 0.096	1018.92	1013.25	1007.63	–	–	–	1836.1	1810.6	1782.4
[1], x2 = 0.1277	1018.84	1013.16	1007.52	–	–	–	1835.8	1810.4	1783.1
[1], x2 = 0.2116	1018.6	1012.89	1007.23	–	–	–	1835.3	1810.1	1783.8
[1], x2 = 0.3077	1018.31	1012.56	1006.85	–	–	–	1835.6	1810	1784.2
[1], x2 = 0.3942	1018.08	1012.27	1006.5	–	–	–	1834.9	1810	1785.7
[1], x2 = 0.4952	1017.78	1011.89	1006.03	–	–	–	1835.1	1810.8	1786.7
[1], x2 = 0.5023	1017.76	1011.86	1005.99	–	–	–	1835.2	1810.9	1786.7
[1], x2 = 0.6047	1017.45	1011.42	1005.42	–	–	–	1835.9	1811.8	1788
[1], x2 = 0.6137	1017.41	1011.37	1005.35	–	–	–	1835.7	1811.8	1788
[1], x2 = 0.7061	1016.91	1010.72	1004.54	–	–	–	1832.9	1809.6	1786.1
[1], x2 = 0.7177	1016.81	1010.61	1004.4	–	–	–	1832	1808.9	1785.6
[1], x2 = 0.7571	1016.39	1010.13	1003.86	–	–	–	1827.3	1804.9	1782.1
[1], x2 = 0.8208	1015.22	1008.91	1002.57	–	–	–	1810.9	1790.5	1769.4
[1], x2 = 0.8468	1014.46	1008.19	1001.84	–	–	–	1798.5	1779.7	1756.5
[1], x2 = 0.9034	1011.96	1005.98	999.84	–	–	–	1750.6	1738.3	1724.2
[1], x2 = 0.904	1011.92	1005.93	999.81	–	–	–	1749.8	1737.2	1723.6
[1], x2 = 0.9492	1008.27	1003.12	997.62	–	–	–	1671.5	1670.7	1666.7
[1], x2 = 0.9507	1008.1	1002.99	997.53	–	–	–	1667.9	1667.7	1664.3
[1], x2 = 0.9517	1007.98	1002.91	997.47	–	–	–	1665.4	1665.5	1662.5
[2], x2 = 0	–	–	–	1.49968	1.49681	1.49392	–	–	–
[2], x2 = 0.096	–	–	–	1.49811	1.49519	1.49222	–	–	–
[2], x2 = 0.1277	–	–	–	1.49752	1.49459	1.49162	–	–	–
[2], x2 = 0.2116	–	–	–	1.4957	1.49278	1.48982	–	–	–
[2], x2 = 0.3077	–	–	–	1.49322	1.49032	1.4871	–	–	–
[2], x2 = 0.3942	–	–	–	1.49044	1.48751	1.48432	–	–	–
[2], x2 = 0.4952	–	–	–	1.48621	1.48329	1.47987	–	–	–
[2], x2 = 0.5023	–	–	–	1.4858	1.48284	1.47973	–	–	–
[2], x2 = 0.6047	–	–	–	1.4797	1.47674	1.47345	–	–	–
[2], x2 = 0.6137	–	–	–	1.47901	1.4761	1.47289	–	–	–
[2], x2 = 0.7061	–	–	–	1.47041	1.46748	1.46424	–	–	–
[2], x2 = 0.7177	–	–	–	1.46905	1.46612	1.46281	–	–	–
[2], x2 = 0.7571	–	–	–	1.46368	1.46078	1.45746	–	–	–
[2], x2 = 0.8208	–	–	–	1.45158	1.4487	1.44577	–	–	–
[2], x2 = 0.8468	–	–	–	1.44481	1.44172	1.43884	–	–	–
[2], x2 = 0.9034	–	–	–	1.42419	1.42145	1.41909	–	–	–
[2], x2 = 0.904	–	–	–	1.42386	1.42118	1.41891	–	–	–
[2], x2 = 0.9492	–	–	–	1.39597	1.39362	1.39175	–	–	–
[2], x2 = 0.9507	–	–	–	1.39472	1.39249	1.39055	–	–	–
[2], x2 = 0.9517	–	–	–	1.3939	1.39161	1.3897	–	–	–
